Test results as given in patent publication US20130053277A1 (priority 2010, published 2013).

Assays:
[1] = molecular target: M2 H+ channel, Singapore wild-type (Influenza A virus, UniProt P10920); type: cell-based, Influenza A (Singapore H2N2 isolate)
[2] = molecular target: influenza A virus M2 proton-selective ion channel, wild-type (Influenza A virus, UniProt P0DOF5); details: cited from earlier work
influenza A virus M2 proton-selective ion channel, wild-type, sequence (P0DOF5 whole entry, looked up): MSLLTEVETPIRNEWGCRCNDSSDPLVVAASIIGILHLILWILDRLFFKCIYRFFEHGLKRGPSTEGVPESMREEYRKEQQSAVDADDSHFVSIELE

M2 H+ channel, Singapore wild-type, sequence (P10920 whole entry, looked up): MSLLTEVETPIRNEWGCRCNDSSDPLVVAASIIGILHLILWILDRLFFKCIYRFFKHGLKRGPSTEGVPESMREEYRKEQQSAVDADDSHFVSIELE

SMILES | Ks (Monod coefficient, inhibitory constant) [1] [nM] | Ks (dynamic range statement) [1] [nm] | activity (growth retardation relief, O.D.600) compared between the two drugs [1] | relief of growth inhibition by the channel from the Singapore strain [1] | relief of growth retardation of bacteria expressing the M2 channel [1] | isochronic apparent inhibitory binding constant [2] [µM]
CC(N)C12CC3CC(CC(C3)C1)C2 (centres unmarked) [rimantadine, Rimantadine] | 15 | 15 | more pronounced than amantadine | substantially relieved | significantly alleviate | 
NC12CC3CC(CC(C3)C1)C2 [amantadine, Amantadine] | 140 |  |  | substantially relieved |  | 16
